# Assay results as given in ChEMBL document CHEMBL1122962, “Molecular interactions of toxic chlorinated dibenzo-p-dioxins and dibenzofurans with thyroxine binding prealbumin” (J Med Chem, 1985).
# Target: Transthyretin (Homo sapiens) (UniProt P02766)
# Assay: Relative binding affinity against prealbumin in competition binding assay and expressed as relative to L-T4 (100)
row,SMILES,Binding affinity
1,O=C(O)CCCCC(=O)Nc1cc(Cl)cc2c1oc1cc(Cl)c(Cl)cc12,0.32
2,N[C@@H](Cc1cc(I)c(Oc2cc(I)c(O)c(I)c2)c(I)c1)C(=O)O,100
3,Oc1c(I)cc(I)cc1I,384
4,O=C(O)CCCCC(=O)Nc1cc(Cl)cc2c1Oc1cc(Cl)c(Cl)cc1O2,15
